Experimental data from patent US10160986B2, “Chemoenzymatic synthesis of heparin and heparan sulfate analogs” (The Regents of the University of California, priority 2011, dated 2018).

Experiments:
[1] = test system: necrotizing enterocolitis in neonatal rats; test: Necrotizing enterocolitis neonatal rat model; format: in vivo, Sprague-Dawley rats; conditions: formula containing 300 μg/mL glycan; for mean ileum pathology score (0: healthy; 4: complete destruction): oral gavage twice daily, 96 hours, mean±standard deviation
Description: Rat studies. The efficacy of the synthesized glycans against necrotizing enterocolitis was tested in the same neonatal rat model as previously described for DSLNT. Briefly, pregnant time-dated Sprague-Dawley rats were induced at term and immediately randomized into one of the different study groups. Animals in the dam-fed group (DF) remained with the dam. All other animals were separated from the dam, housed in a temperature- and humidity-controlled incubator and orally gavaged with a special rodent formula (0.2 mL) twice daily. All animals, dam-fed and gavaged, were exposed to 10 min of hypoxia (5% O2, 95% N2) thrice daily in a modular chamber. All animals were sacrificed 96 hours post-partum, and 0.5 cm of the terminal ileum prepared for H&E staining per standard protocols and scored blindly based on morphological changes that included epithelial sloughing, villus edema, infiltration of neutrophils, apoptosis of villus enterocytes, crypt hyperplasia and misaligned nuclei in the epithelium. If at least one pathology sign was observed, a score of 0.5-1.5 was assigned depending on severity. […] The maximum score of 4 was given in case of complete obliteration of the epithelium with or without intestinal perforation. Pathology scores were plotted for each animal and the mean calculated per group. Differences between the groups were calculated by 1 way ANOVA with Kruskal-Wallis test and Dunn's Multiple Comparison test. Significance was defined as a P value of less than 0.05.

[2] = biological target: NahK_JCM1217 (Bifidobacterium longum subsp. longum, UniProt E8MF12); conditions: ATP and GlcNAc as substrates; HPIC with pulsed amperometric detector; cited from earlier work
[3] = biological target: NahK_ATCC55813 (Bifidobacterium longum subsp. longum, UniProt E8MF12, D7V/R348H)
Description: (§1) Kinetics by CE assays. Reactions were carried out in duplicate at 37° C. for 10 min in a total volume of 20 μL in Tris-HCl buffer (200 mM, pH 7.5) containing MgCl2 (1 mM), ATP, GlcNAc or GalNAc, and NahK (0.25 μM when GlcNAc and ATP were used as substrates, 0.5 μM when GalNAc and ATP were used as substrates). Apparent kinetic parameters were obtained by varying the ATP concentration from 0.1-5.0 mM (0.1 mM, 0.2 mM, 0.4 mM, 1 mM, 2 mM, and 5 mM) at a fixed concentration of GlcNAc or GalNAc (1 mM), or varying the concentration of GlcNAc or GalNAc (0.1 mM, 0.2 mM, 0.4 mM, 1 mM, 2 mM, and 5 mM) at a fixed concentration of ATP (1 mM) and fitting the data to the Michaelis-Menten equation using Grafit 5.0.
(§2) Capillary electrophoresis (CE) assays. Based on the detection of ADP and ATP in the reaction mixture by a UV detector, a capillary electrophoresis-based method was developed to directly measure the formation of ADP and N-acetylhexosamine-1-phosphate from ATP and N-acetylhexosamine for characterizing the activities of NahKs.

[4] = biological target: T1, human FGF-4 (Homo sapiens, UniProt P08620); test: Inhibition of FGF-4 binding to immobilized heparin-biotin; conditions: compound 1 mM; FGF 1 μM
T1 construct: purchased PeproTech Inc (Rocky Hill, N.J.)
T1 sequence (P08620 31-206): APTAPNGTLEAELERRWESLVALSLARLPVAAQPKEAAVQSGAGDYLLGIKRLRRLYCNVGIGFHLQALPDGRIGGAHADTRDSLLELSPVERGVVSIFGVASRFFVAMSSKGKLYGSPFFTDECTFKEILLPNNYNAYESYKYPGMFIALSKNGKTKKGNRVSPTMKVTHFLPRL
Description: (§3) Materials. Recombinant human fibroblast growth factors FGF-1, FGF-2, FGF-4, and anti-human FGF-1, FGF-2, FGF-4 were purchased from PeproTech Inc (Rocky Hill, N.J.). Heparin-biotin was from Sigma (St. Louis, Mo.). Low molecular weight heparin (LMWH) was bought from AMS Biotechnology (Lake Forest, Calif.). Alexa Fluor® 488 goat anti-rabbit IgG (H+L) was from Invitrogen (Carlsbad, Calif.). 384-Well NeutrAvidin-coated plates for the sialidase assays were from Fisher Biotech.
Methods. All assays were carried out in duplicate in 384-well NeutrAvidin coated plates. Heparin-biotin (20 μL, 2 μM) was added to each well and the plate was incubated at 4° C. for overnight. The plate was washed with 3 rounds of 1×PBS buffer containing 0.05% Tween-20 and blocked with 1% BSA (50 μL for each well) and incubated at r.t. for 30 min. After the plate was washed three times with 1×PBS buffer containing 0.05% Tween-20, each set of duplicate wells were added 20 μL of human FGF-1, FGF-2, or FGF-4 (1 μM) with or without premixing with LMWH (˜22 nM or 0.1 μM), monosaccharide, or oligosaccharides (100 μM or 1 mM) and the plate was incubate at r.t. for 1 hr. […] After washed three times with 1×PBS buffer containing 0.05% Tween-20 and once with water, the fluorescent signals of wells in the plate were measured using a microtiter plate reader.

[5] = biological target: T2, human FGF-1 (Homo sapiens, UniProt P05230); test: Inhibition of FGF-1 binding to immobilized heparin-biotin; conditions: compound 1 mM; FGF 1 μM
T2 construct: purchased PeproTech Inc (Rocky Hill, N.J.)
Description: as §3
(§4) Methods. All assays were carried out in duplicate in 384-well NeutrAvidin coated plates. Heparin-biotin (20 μL, 2 μM) was added to each well and the plate was incubated at 4° C. for overnight. The plate was washed with 3 rounds of 1×PBS buffer containing 0.05% Tween-20 and blocked with 1% BSA (50 μL for each well) and incubated at r.t. for 30 min. After the plate was washed three times with 1×PBS buffer containing 0.05% Tween-20, each set of duplicate wells were added 20 μL of human FGF-1, FGF-2, or FGF-4 (1 μM) with or without premixing with LMWH (˜22 nM or 0.1 μM), monosaccharide, or oligosaccharides (100 μM or 1 mM) and the plate was incubate at r.t. for 1 hr. After washing three times with 1×PBS buffer containing 0.05% Tween-20, anti-human FGF-1, FGF-2 or FGF-4 (20 μL) was added and the plate was incubated at r.t. for 1 hr. After the plate was washed three times with 1×PBS buffer containing 0.05% Tween-20, Alexa Fluor® 488 goat anti-rabbit IgG (H+L) (20 μL) was added and the plate was incubated at r.t. for 1 hr. After washed three times with 1×PBS buffer containing 0.05% Tween-20 and once with water, the fluorescent signals of wells in the plate were measured using a microtiter plate reader.

[6] = biological target: T3, human FGF-2 (Homo sapiens, UniProt P09038); test: Inhibition of FGF-2 binding to immobilized heparin-biotin; conditions: compound 1 mM; FGF 1 μM
T3 construct: purchased PeproTech Inc (Rocky Hill, N.J.)
Description: as §3, §4

[7] = biological target: T4, AtGlcAK (Arabidopsis thaliana, UniProt Q93ZC9, I297M); test: AtGlcAK substrate specificity by TLC and LC-MS; format: biochemical; conditions: sugar 10 mM, ATP 20 mM, AtGlcAK 22 μg, 37° C., 15 hr
T4 construct: made in house; host or cells: E. coli BL21 (DE3)
Description: Substrates specificity assays by thin-layer chromatography (TLC). […] For visualizing compounds on TLC plate, p-anisaldehyde sugar stain was used.
LC-MS assays for AtGlcAK reactions. The AtGlcAK reaction mixtures above were also analyzed by LC-MS. 2 μL of sample was diluted 100 fold and 8 μL was injected into a Waters spherisorb ODS-2 column (5 μm particles, 250 mm length, 4.6 mm I.D.). The sample was eluted with 30% acetonitrile in H2O with 0.1% formic acid and detected by ESI-MS in negative mode.

[8] = biological target: T4, AtGlcAK; test: AtGlcAK substrate specificity CE assay; format: biochemical
Description: Substrate specificity assays. […] The reactions were quenched and assayed with the same method as those for pH profile. All reactions were performed in duplicates.

[9] = test system: necrotizing enterocolitis in neonatal rats; conditions: previously reported; cited from earlier work
[10] = biological target: NahK_ATCC15697 (Bifidobacterium longum, UniProt B7GN78); test: Kinetics by CE assays, NahK_ATCC15697; conditions: in the presence of ATP
Description: as §1, §2

[11] = Low enzyme Conc. (412 ng in 20 μL, 15 min, 37° C.)

## CC(=O)N[C@H]1[C@H](O[C@H]2[C@@H](O)[C@@H](CO)O[C@@H](O[C@H]3[C@H](O)[C@@H](O)C(O)O[C@@H]3CO)[C@@H]2O)O[C@H](CO)[C@@H](O[C@@H]2O[C@H](CO)[C@H](O)[C@H](O[C@]3(C(=O)O)C[C@H](O)[C@@H](NC(C)=O)[C@H]([C@H](O)[C@H](O)CO)O3)[C@H]2O)[C@@H]1O (some centres unmarked) [3′″-sLNnT, Neu5Acα2-3Galβ1-4GlcNAcβ1-3Galβ1-4Glc]
[1]
  NEC preventing effect in neonatal rats: lacking of NEC preventing effect
  mean ileum pathology score (0: healthy; 4: complete destruction): 2.05±0.55

## Nc1ncnc2c1ncn2[C@@H]1O[C@H](COP(=O)(O)OP(=O)(O)OP(=O)(O)O)[C@@H](O)[C@H]1O [ATP, Adenosine-5′-triphosphate]
[2]
  Km: 172 µM
[3]; substrates ATP and GlcNAc
  kcat: 1.3 ± 0.1 s⁻¹
[3]; substrates ATP and GlcNAc, one varied, other fixed at 1 mM, 37° C., 10 min
  Km: 110 ± 30 µM

## O=C[C@H](O)[C@@H](O)[C@H](O)[C@H](O)C(=O)O [Compound F24-1, glucuronic acid]
[4]
  inhibition at 1000 µM: 54%
[5]
  inhibition at 1000 µM: 65%
[6]
  inhibition at 1000 µM: 68%
[7]
  substrate for AtGlcAK (formation of sugar-1-phosphate): acceptable substrates
[8]; [11]
  Percentage conversion of ATP: 61.5%

## CC(=O)N[C@H]1[C@H](O[C@H]2[C@@H](O)[C@@H](CO)O[C@@H](O[C@@H]([C@H](O)[C@@H](O)C=O)[C@H](O)CO)[C@@H]2O)O[C@H](CO[C@]2(C(=O)O)C[C@H](O)[C@@H](NC(C)=O)[C@H]([C@H](O)[C@H](O)CO)O2)[C@@H](O)[C@@H]1O[C@@H]1O[C@H](CO)[C@H](O)[C@H](O[C@]2(C(=O)O)C[C@H](O)[C@@H](NC(C)=O)[C@H]([C@H](O)[C@H](O)CO)O2)[C@H]1O [DSLNT, disialyllacto-N-tetraose]
[9]
  NEC preventing effect in neonatal rat model: effective for preventing necrotizing enterocolitis

## O=C[C@H](O)[C@@H](O)[C@@H](O)[C@H](O)C(=O)O [GalA, galacturonic acid]
[7]
  substrate for AtGlcAK (formation of sugar-1-phosphate): acceptable substrates
[8]; High enzyme Conc. (2.1 μg in 20 μL, 60 min, 37° C.)
  Percentage conversion of ATP: 15.3%
[8]; [11]
  Percentage conversion of ATP: 6.2%

## CC(=O)N[C@H]1C(O)O[C@H](CO)[C@@H](O)[C@@H]1O (some centres unmarked) [GlcNAc, N-acetylglucosamine]
[2]
  Km: 118 µM
[10]
  efficiency as substrate relative to GalNAc: 3.1 fold
[3]; in the presence of ATP
  efficiency as substrate relative to GalNAc: 2.6 fold

## O=C[C@@H](O)[C@H](O)[C@@H](O)[C@H](O)C(=O)O [IdoA, iduronic acid]
[7]
  substrate for AtGlcAK (formation of sugar-1-phosphate): acceptable substrates

## GlcAβ1-4GlcNH2α1-4GlcAβ2AA [Compound F24-11]
[5]
  FGF-1 (% inhibition): 76%

## GlcNAc6N3α1-4GlcAβ1-4GlcNH2α1-4GlcAβ2AA [Compound F24-13]
[5]
  FGF-1 (% inhibition): 62%

## GlcNAc6NH2α1-4GlcAβ1-4GlcNSα1-4GlcAβ2AA [Compound F24-15]
[4]
  FGF-4 (% inhibition): 43%
[6]
  FGF-2 (% inhibition): 68%

## GlcNAc6NSα1-4GlcAβ1-4GlcNSα1-4GlcAβ2AA [Compound F24-16]
[5]
  FGF-1 (% inhibition): 58%
[6]
  FGF-2 (% inhibition): 55%

## Neu5Acα2-6Galβ1-4GlcNAcβ1-3(Neu5Acα2-6)Galβ1-4Glc [DSLNnT]
[1]
  NEC preventing effect in neonatal rats: protects neonatal rats from necrotizing enterocolitis
  mean ileum pathology score (0: healthy; 4: complete destruction): 1.29±0.54
